Data published in US20040142960A1 (priority 2001, published 2004).
Where a name gives a salt, the structure may show the parent alone.

Experiments:
HSV-1 [1] = assay: systemic or local treatment, HSV-1 reactivation from latency; type: in vivo
[2] = antibody response in treated subjects; type: in vivo
Langerhans cells = conditions: administered intraperitoneally; cited from earlier work
HSV-1 [3] = conditions: cited from earlier work
bone marrow cells = conditions: concentrations at which the adrenergic antagonists are effective; cited from earlier work

SMILES: COC(=O)[C@@H]1[C@H]2C[C@H]3c4[nH]c5ccccc5c4CCN3C[C@@H]2CC[C@@H]1O [yohimbine, (16α,17α)-hydroxyyohimban-16-carboxylic acid methyl ester]
- inflammation during HSV-1 reactivation (HSV-1 [1]; in vivo): reduced inflammation
- HSV-1 reactivation frequency (HSV-1 [1]; systemic or local treatment): reduces the HSV-1 reactivation frequency
- local norepinephrine concentration (HSV-1 [1]; systemic or local treatment): local increase of norepinephrine concentration
- antibody response [2]: stimulates and enhances the antibody response
- Langerhans cells migration (Langerhans cells): enhances the Langheran's cells migration

SMILES: COC(=O)[C@@H]1[C@H]2C[C@H]3c4[nH]c5ccccc5c4CCN3C[C@@H]2CC[C@@H]1O [yohimbine hydrochloride]
- activity on HSV-1 (HSV-1 [3]): inactive

SMILES: COc1cc2nc(N3CCN(C(=O)c4ccco4)CC3)nc(N)c2cc1OC [prazosin]
- relative order of potency in counteracting norepinephrine (bone marrow cells): prazosin>phentolamine>yohimbine

SMILES: Cc1ccc(N(CC2=NCCN2)c2cccc(O)c2)cc1 [phentolamine]
- relative order of potency in counteracting norepinephrine (bone marrow cells): prazosin>phentolamine>yohimbine
